From ChEMBL document CHEMBL3596146, “Design, synthesis, and biological evaluation of a series of alkoxy-3-indolylacetic acids as peroxisome proliferator-activated receptor γ/δ agonists” (Bioorg Med Chem, 2015)
Activity calls are given as the source filed them. No cut-off for these calls is given here.

Experiments:
[1] = target: T1, Peroxisome proliferator-activated receptor gamma (Homo sapiens) (UniProt P37231); assay: Agonist activity at PPAR-gamma (unknown origin) expressed in CV-1 cells co-transfected with tk-PPRE-luciferase vector at 10 uM after 24 hrs by transactivation assay relative to rosiglitazone; type: cell-based
T1 sequence (whole entry): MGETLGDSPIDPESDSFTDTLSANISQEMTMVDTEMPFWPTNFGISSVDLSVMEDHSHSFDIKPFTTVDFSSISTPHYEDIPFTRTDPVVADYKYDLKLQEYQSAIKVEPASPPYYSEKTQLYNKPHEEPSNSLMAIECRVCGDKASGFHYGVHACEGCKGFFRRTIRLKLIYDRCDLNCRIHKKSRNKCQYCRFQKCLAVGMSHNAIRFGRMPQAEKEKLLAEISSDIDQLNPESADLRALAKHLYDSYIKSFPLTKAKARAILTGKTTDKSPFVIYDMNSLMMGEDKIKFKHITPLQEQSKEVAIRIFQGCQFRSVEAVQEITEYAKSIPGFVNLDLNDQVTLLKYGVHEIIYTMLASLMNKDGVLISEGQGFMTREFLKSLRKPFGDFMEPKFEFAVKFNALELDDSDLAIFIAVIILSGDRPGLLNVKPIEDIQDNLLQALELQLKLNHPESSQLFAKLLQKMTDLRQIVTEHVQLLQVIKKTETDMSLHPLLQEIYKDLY

[2] = target: T2, Peroxisome proliferator-activated receptor alpha (Homo sapiens) (UniProt Q07869); assay: Agonist activity at PPAR-alpha (unknown origin) expressed in CV-1 cells co-transfected with tk-PPRE-luciferase vector at 10 uM after 24 hrs by transactivation assay relative to GW7647; type: cell-based
T2 sequence (whole entry): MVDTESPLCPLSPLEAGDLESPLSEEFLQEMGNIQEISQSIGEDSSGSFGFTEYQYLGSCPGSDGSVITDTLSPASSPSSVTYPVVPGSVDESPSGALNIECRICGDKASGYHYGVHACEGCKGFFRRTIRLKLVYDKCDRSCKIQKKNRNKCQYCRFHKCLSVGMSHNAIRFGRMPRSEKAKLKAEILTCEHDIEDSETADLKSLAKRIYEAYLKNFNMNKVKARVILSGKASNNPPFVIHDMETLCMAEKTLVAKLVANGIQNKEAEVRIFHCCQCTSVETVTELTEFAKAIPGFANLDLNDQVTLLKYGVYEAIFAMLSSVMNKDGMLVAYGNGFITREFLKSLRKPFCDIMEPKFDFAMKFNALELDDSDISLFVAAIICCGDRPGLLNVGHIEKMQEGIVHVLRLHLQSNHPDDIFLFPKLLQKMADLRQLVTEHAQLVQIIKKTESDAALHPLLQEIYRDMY

[3] = target: T3, Peroxisome proliferator-activated receptor delta (Homo sapiens) (UniProt Q03181); assay: Agonist activity at PPAR-delta (unknown origin) expressed in HEK293t cells co-transfected with tk-PPRE-luciferase vector at 10 uM after 24 hrs by transactivation assay relative to GW0742; type: cell-based; details: HEK-293T
T3 sequence (whole entry): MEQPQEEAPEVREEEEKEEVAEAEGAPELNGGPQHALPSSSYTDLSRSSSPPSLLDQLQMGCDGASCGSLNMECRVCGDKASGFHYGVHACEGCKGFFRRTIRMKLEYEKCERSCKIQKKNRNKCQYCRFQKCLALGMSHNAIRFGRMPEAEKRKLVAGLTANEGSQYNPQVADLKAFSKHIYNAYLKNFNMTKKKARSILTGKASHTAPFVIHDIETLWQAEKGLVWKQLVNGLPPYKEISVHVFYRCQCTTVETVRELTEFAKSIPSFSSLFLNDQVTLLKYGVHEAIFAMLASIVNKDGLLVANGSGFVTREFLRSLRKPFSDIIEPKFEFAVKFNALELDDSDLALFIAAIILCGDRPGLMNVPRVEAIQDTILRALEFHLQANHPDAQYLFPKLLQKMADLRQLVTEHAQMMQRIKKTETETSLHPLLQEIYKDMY

[4] = Retention time of the compound by HPLC analysis; type: physicochemical

Emax [1]	Emax [2]	Emax [3]	Retention_time [4]	Structure (SMILES)
71.1%	22.3%	59.5%	7.257 min	COc1ccc(Oc2cccc(OCCCOc3ccc4c(c3)c(CC(=O)O)cn4Cc3ccccc3)c2)cc1
120%	37.9%	65.2%	30.169 min	CC(C)=CCn1cc(CC(=O)O)c2cc(OCCCOc3cccc(OCc4ccc(Cl)cc4)c3)ccc21
145%	60.6%	40.6%	9.409 min	Cc1ccc(Oc2cccc(OCCCOc3ccc4[nH]cc(CC(=O)O)c4c3)c2)cc1
85.2%	25.9%	53.2%	25.922 min	O=C(O)Cc1cn(Cc2ccccc2)c2ccc(OCCCOc3cccc(Oc4ccc(C(F)(F)F)cc4)c3)cc12
73.4%	41.2%	35.2%	7.257 min	Cc1ccc(COc2ccccc2OCCCOc2ccc3[nH]cc(CC(=O)O)c3c2)cc1
101%	38.5%	87.2%	16.602 min	Cc1ccc(COc2cccc(OCCOc3ccc4c(c3)c(CC(=O)O)cn4Cc3ccccc3)c2)cc1
122%	34.8%	84.8%	18.802 min	O=C(O)Cc1cn(Cc2ccccc2)c2cc(OCCCOc3cccc(OCc4ccc(Cl)cc4)c3)ccc12
109%	31.4%	83%	21.719 min	Cc1ccc(COc2cccc(OCCCOc3ccc4c(c3)c(CC(=O)O)cn4Cc3ccccc3)c2)cc1
99.8%	34%	88.8%	25.456 min	O=C(O)Cc1cn(Cc2ccccc2)c2ccc(OCCCOc3cccc(Oc4ccc(Cl)cc4)c3)cc12
119%	61.1%	43.2%	9.685 min	O=C(O)Cc1c[nH]c2ccc(OCCCOc3cccc(Oc4ccc(C(F)(F)F)cc4)c3)cc12
93.4%	87.5%	70%	5.651 min	COc1ccc(COc2cccc(OCCOc3ccc4[nH]cc(CC(=O)O)c4c3)c2)cc1
100%	28.2%	71.9%	9.707 min	O=C(O)Cc1c[nH]c2ccc(OCCCOc3cccc(OCc4ccc(C(F)(F)F)cc4)c3)cc12
36.5%	10.9%	13.2%	8.19 min	Cc1cccc(OCCOc2ccc3c(c2)c(CC(=O)O)cn3Cc2ccccc2)c1
110%	37.5%	70.8%	13.52 min	Cn1cc(CC(=O)O)c2cc(OCCCOc3cccc(OCc4ccc(Cl)cc4)c3)ccc21
114%	66.7%	76.6%	7.375 min	Cc1ccc(COc2cccc(OCCOc3ccc4[nH]cc(CC(=O)O)c4c3)c2)cc1
85.7%	23.4%	73.9%	18.375 min	O=C(O)Cc1cn(Cc2ccccc2)c2ccc(OCCOc3cccc(OCc4ccc(C(F)(F)F)cc4)c3)cc12
106%	59.2%	37.9%	9.322 min	O=C(O)Cc1c[nH]c2ccc(OCCCOc3cccc(Oc4ccc(Cl)cc4)c3)cc12
83.7%	19%	94.7%	22.989 min	O=C(O)Cc1cn(Cc2ccccc2)c2ccc(OCCCOc3ccc(OCc4ccc(Cl)cc4)cc3)cc12
19.2%	10.9%	64.6%	7.422 min	Cc1ccc(COc2ccccc2OCCCOc2ccc3c(CC(=O)O)c[nH]c3c2)cc1
92.6%	18.9%	93.6%	21.33 min	Cc1ccc(COc2ccc(OCCCOc3ccc4c(c3)c(CC(=O)O)cn4Cc3ccccc3)cc2)cc1
31.3%	21.8%	27.9%	4.444 min	Cc1cccc(OCCOc2ccc3[nH]cc(CC(=O)O)c3c2)c1
77.7%	16.5%	59.5%	16.467 min	O=C(O)Cc1cn(Cc2ccccc2)c2ccc(OCCCOc3cccc(OCc4ccc(F)cc4)c3)cc12
81.2%	40.7%	106%	17.1 min	O=C(O)Cc1cn(Cc2ccccc2)c2ccc(OCCOc3cccc(OCc4ccc(Cl)cc4)c3)cc12

Second part, the compound before the results:

Structure (SMILES)	Emax [1]	Emax [2]	Emax [3]	Retention_time [4]
Cc1ccc(COc2ccccc2OCCCOc2ccc3c(c2)c(CC(=O)O)cn3Cc2ccccc2)cc1	75.1%	26.7%	68.9%	14.49 min
O=C(O)Cc1c[nH]c2cc(OCCCOc3cccc(OCc4ccc(Cl)cc4)c3)ccc12	81.8%	33%	32.8%	8.836 min
C=CCn1cc(CC(=O)O)c2cc(OCCCOc3cccc(OCc4ccc(Cl)cc4)c3)ccc21	104%	35.8%	71.1%	15.057 min
O=C(O)Cc1c[nH]c2ccc(OCCCOc3cccc(Oc4ccccc4)c3)cc12	92.5%	45.4%	23.8%	7.305 min
COc1ccc(Oc2cccc(OCCCOc3ccc4[nH]cc(CC(=O)O)c4c3)c2)cc1	89.7%	45%	25.6%	6.53 min
O=C(O)Cc1c[nH]c2ccc(OCCCOc3cccc(OCc4ccc(Cl)cc4Cl)c3)cc12	102%	59.5%	85.3%	
Cc1ccc(Oc2cccc(OCCCOc3ccc4c(c3)c(CC(=O)O)cn4Cc3ccccc3)c2)cc1	119%	33.3%	69.1%	23.472 min
O=C(O)Cc1c[nH]c2ccc(OCCOc3cccc(Cl)c3)cc12	16.8%	15.5%	16.2%	4.608 min
Cc1ccc(COc2cccc(OCCCOc3ccc4c(CC(=O)O)c[nH]c4c3)c2)cc1	84.3%	23.4%	37.2%	9.005 min
O=C(O)Cc1cn(Cc2ccccc2)c2ccc(OCCCOc3cccc(OCc4ccc(C(F)(F)F)cc4)c3)cc12	77.9%	12.2%	87.4%	24.08 min
O=C(O)Cc1cn(Cc2ccccc2)c2ccc(OCCCOc3ccccc3OCc3ccc(Cl)cc3)cc12	89.2%	27.1%	74.9%	15.313 min
O=C(O)Cc1c[nH]c2ccc(OCCCOc3ccccc3OCc3ccc(Cl)cc3)cc12	16.1%	21%	inactive	7.547 min
O=C(O)Cc1c[nH]c2ccc(OCCCOc3cccc(OCc4ccc(Cl)cc4)c3)cc12	104%	56.7%	63.7%	9.64 min
O=C(O)Cc1cn(Cc2ccccc2)c2ccc(OCCCOc3cccc(OCc4ccc(Cl)cc4Cl)c3)cc12	102%	18.7%	44.2%	
O=C(O)Cc1c[nH]c2ccc(OCCCOc3ccc(OCc4ccc(Cl)cc4)cc3)cc12	99.4%	18.9%	89.5%	9.166 min
CCCn1cc(CC(=O)O)c2cc(OCCCOc3cccc(OCc4ccc(Cl)cc4)c3)ccc21	110%	66.8%	77.1%	21.212 min
